Experiment [1] concerns the target T1, caspase 1 (Homo sapiens, UniProt P29466).
T1 construct: purchased Alexis Biochemicals 201-056
T1 sequence (P29466 120-404): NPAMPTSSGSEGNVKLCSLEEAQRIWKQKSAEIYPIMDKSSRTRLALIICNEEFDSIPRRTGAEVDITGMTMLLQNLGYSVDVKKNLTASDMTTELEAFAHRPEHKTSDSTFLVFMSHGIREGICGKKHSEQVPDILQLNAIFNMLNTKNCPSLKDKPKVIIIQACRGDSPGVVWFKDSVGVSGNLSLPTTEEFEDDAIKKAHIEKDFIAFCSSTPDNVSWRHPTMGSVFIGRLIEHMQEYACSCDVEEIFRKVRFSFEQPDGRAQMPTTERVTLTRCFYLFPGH
Kind of experiment: In vitro self-activation of recombinant caspase 1. The following applies: peptides 200 μM, 2 h, procaspase 1 (1U). It is filed as biochemical. Here is the method:
(§1) FIG. 5 provides results showing the direct association of C/EBPβ-Glu^217 with procaspases 1 and 8. […] Enzyme activity was measured in the absence (control) or presence of C/EBPβ peptides (200 μM) for 2 h, using a procaspases 1 (1U) (not shown) and 8 (0.2 μg) activity assay. Values are presented as the mean±one half the range of duplicates. Panel C provides results for cells cultured on a collagen type I matrix and incubated with the indicated cell permeant, purified synthetic N-acetyl, C-aldehyde C/EBPβ tetra-peptides (10 μM) or with recombinant C/EBPβ-HA peptides as indicated, together with the Chariot reagent (Active Motif) for 4 h. Control cells were incubated without peptides (P<0.05 for all peptides containing Ala^217).
(§2) Purified recombinant C/EBPβ peptides, expressed as known in the art (See, Descombes et al., supra; and Buck et al. (1994), supra), and purified synthetic N-acetyl, C-aldehyde tetrapeptides (200 μM) (American Peptide Company) were assayed for their ability to inhibit the activity of purified human recombinant caspases 1 (catalogue # 201-056) and 8 (catalogue # 201-041-C005) (Alexis Biochemicals). The sequence of caspase 8 includes Ser217 through Asp479 cloned into an expression vector containing a 21 amino acid linker at the N-terminus. Thus, the prodomain (first 220 amino acids) is essentially missing. […] Caspase activity was determined by the release of the p-nitroaniline colorimetric (Alexis Biochemicals) substrate for caspase 1 (catalogue # 260-026) or 8 (catalogue # 260-045) within the linear part of the kinetic assay (Thornberry et al. (1997), supra; Stennicke and Salvesen, supra). […]
To delineate the role of C/EBPβ on the activation of procaspases 1 and 8, the self-activation of recombinant procaspases 1 and 8 was induced in vitro (Wilson et al., supra; Margolin et al., supra; and Earnshaw et al., supra), and the effect of purified recombinant C/EBPβ peptides, produced as described previously (Descombes et al., supra; and Buck et al., (1994), supra) on this process was determined. […]

Experiment [2] deals with T2, caspase 8 (Homo sapiens, UniProt Q14790).
T2 construct: 21 amino acid linker (vector-derived) (N); purchased Alexis Biochemicals 201-041-C005
T2 sequence (Q14790 217-479): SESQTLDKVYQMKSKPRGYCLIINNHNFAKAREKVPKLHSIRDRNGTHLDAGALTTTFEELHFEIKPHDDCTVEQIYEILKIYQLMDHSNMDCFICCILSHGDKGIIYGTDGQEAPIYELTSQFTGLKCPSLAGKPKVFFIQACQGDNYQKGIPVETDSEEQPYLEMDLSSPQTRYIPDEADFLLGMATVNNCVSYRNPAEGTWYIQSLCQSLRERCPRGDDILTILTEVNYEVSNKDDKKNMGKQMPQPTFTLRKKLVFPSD
Kind of experiment: In vitro self-activation of recombinant caspase 8. Format: biochemical. The following applies: peptides 200 μM, 2 h, procaspase 8 (0.2 μg), colorimetric substrate. On the procedure: as §1
(§3) FIG. 7 provides data showing that phosphorylation of rat C/EBPβ on Ser^105 prevents stellate cell apoptosis. Panel A provides results for mouse stellate cells transfected as described herein (See, FIG. 2), with mutant p90RSK or treated with lactacystin (10 μM) (closed bars), and co-transfected with CMV-rC/EBPβ-Asp^105 (1 μg each) (open bars) as indicated. Annexin-V-PE binding was determined as described for FIG. 2 (P<0.05 for rC/EBPβ-Asp^105). Panel B provides results of an annexin-V-PE assay for stellate cells from C/EBPβ^+/+ (closed circles) and rC/EBPβ-Asp^105 transgenic (open circles) mice treated with lactacystin (0-30 μM). The annexin-V-PE assay was performed 6 hours after treatment began (P<0.05 for rC/EBPβ-Asp^105 transgenic mice for 5-25 μM lactacystin). Panel C provides results for rC/EBPβ-HA constructs (0.3 μg) transfected into rat stellate cells. The expressed peptides were immunoprecipitated with anti-HA antibodies. Using a specific antibody, rCEBPβ-PSer^105 was detected only in cells that expressed wild-type rC/EBPβ. […] Reciprocal immunoprecipitations confirmed these associations. […] Enzyme activity was measured using a colorimetric substrate as described in the Examples. […]
as §2, with “Biochemicals).” for “Biochemicals). The sequence of caspase 8 includes Ser217 through Asp479 cloned into an expression vector containing a 21 amino acid linker at the N-terminus. Thus, the prodomain (first 220 amino acids) is essentially missing.”

The test system of experiment [3] is hepatic stellate cells. Kind of experiment: Apoptosis of stellate cells on collagen type I incubated with cell permeant peptides. It is filed as cell-based, mouse. Particulars: collagen type I matrix, tetrapeptides 10 μM, Chariot reagent, 4 h. On the procedure: as §1, with “Ala^217). […]” for “Ala^217).”
Fluorescent labels were observed using a triple-channel fluorescence microscope. […] The number of annexin V (+) cells was determined by in vivo microscopy as known in the art (See, Rudel and Bokoch, supra) among all cells or those expressing the GFP indicator protein either co-transfected with C/EBPβ proteins, or alone. […] At least 1000 cells were analyzed per experimental point, including at least 100 cells expressing the transfected DNA (Buck and Chojkier, EMBO J., 15:1753-1765 (1996); Buck et al., (1994), supra; and Buck et al., (1999), supra). […] Nuclear morphology was analyzed by staining cells with Hoechst 33342 (Molecular Probes). […]

In experiment [4] the test system is stellate cells from C/EBPβ−/− mice. Briefly: Rescue from apoptosis of stellate cells from C/EBPβ−/− mice by cell permeant tetrapeptides. Particulars: C/EBPβ−/− cells activated by collagen type I, tetrapeptides 10 μM, Chariot reagent, 4 hours. It is filed as cell-based, mouse.
Experiment [5] concerns C/EBPβ+/+ stellate cells. Kind of experiment: Annexin-V-PE assay of stellate cells treated with lactacystin. Format: cell-based, mouse. The following applies: lactacystin 0-30 μM, 6 hours after treatment began. Here is the method:
as §3

The subject of experiment [6] is C/EBPβ-Ala^217 stellate cells. Kind of experiment: Apoptosis of stellate cells from C/EBPβ-Ala^217 transgenic mice, Hoechst 33342 nuclear staining. Particulars: collagen type I; IETD or transfection 1 μg. It is filed as cell-based, mouse. On the procedure: FIG. 2 provides results showing increased apoptosis in hepatic stellate cells from C/EBPβ^−/− and C/EBPβ-Ala^217 transgenic mice. […] Six hours after cultivation, an annexin-V-PE binding assay was performed (P<0.05 for C/EBPβ^−/− and C/EBPβ-Ala^217). […] Apoptotic cells are indicated with arrowheads.
Fluorescent labels were observed using a triple-channel fluorescence microscope. The fluorochromes utilized were FITC and Texas red (Molecular Probes). The number of annexin V (+) cells was determined by in vivo microscopy as known in the art (See, Rudel and Bokoch, supra) among all cells or those expressing the GFP indicator protein either co-transfected with C/EBPβ proteins, or alone. These values are reported herein as a percentage of annexin V (+) for cells expressing the transfected DNA. At least 1000 cells were analyzed per experimental point, including at least 100 cells expressing the transfected DNA (Buck and Chojkier, EMBO J., 15:1753-1765 (1996); Buck et al., (1994), supra; and Buck et al., (1999), supra). […] Nuclear morphology was analyzed by staining cells with Hoechst 33342 (Molecular Probes). […]

For experiment [7], the target named is procaspase 8 (Homo sapiens, UniProt Q14790). Particulars: cited from earlier work.
Chain of procaspase 8 (Q14790 whole entry): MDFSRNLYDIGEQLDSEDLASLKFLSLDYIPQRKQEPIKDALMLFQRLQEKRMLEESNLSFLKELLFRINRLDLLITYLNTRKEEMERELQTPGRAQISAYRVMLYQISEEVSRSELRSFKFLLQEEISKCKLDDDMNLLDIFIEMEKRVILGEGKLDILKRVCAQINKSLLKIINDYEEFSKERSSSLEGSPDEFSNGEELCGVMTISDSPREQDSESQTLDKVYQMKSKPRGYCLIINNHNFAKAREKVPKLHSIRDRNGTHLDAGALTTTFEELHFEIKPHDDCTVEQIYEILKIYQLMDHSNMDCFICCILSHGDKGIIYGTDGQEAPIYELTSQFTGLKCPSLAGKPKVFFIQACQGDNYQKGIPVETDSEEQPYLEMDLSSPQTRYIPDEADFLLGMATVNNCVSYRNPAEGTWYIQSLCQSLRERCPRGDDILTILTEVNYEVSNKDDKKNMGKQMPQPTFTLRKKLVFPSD

Non-standard residues stand in square brackets, D forms with d. pT = C[C@@H](OP(=O)(O)O)[C@H](N)C(=O)O

For the molecule “Ac-K-Phospho-T^217VD-CHO (Ac-K[pT]VD-aldehyde; SMILES CC(=O)N[C@@H](CCCCN)C(=O)N[C@H](C(=O)N[C@H](C(=O)N[C@H](C=O)CC(=O)O)C(C)C)[C@@H](C)OP(=O)(O)O) [synthetic N-acetyl, C-aldehyde C/EBPβ 216-219-PThr^217 tetrapeptide]”, the “Inhibition of in vitro self-activation of caspase 1” value in experiment [1] is “inhibited the in vitro self-activation”. Further, the “Inhibition of in vitro self-activation of caspase 8” value (“Inhibition … of caspase 8” for short) in experiment [2] is “inhibited the in vitro self-activation”.
On to Ac-KA^217VD-CHO, for which the “Induction of apoptosis of stellate cells” value in experiment [3] is “induced apoptosis”.
Take “Ac-KE^217VD-CHO (Ac-KEVD-aldehyde; SMILES CC(=O)N[C@@H](CCCCN)C(=O)N[C@@H](CCC(=O)O)C(=O)N[C@H](C(=O)N[C@H](C=O)CC(=O)O)C(C)C) [cell permeant synthetic N-acetyl, C-aldehyde tetrapeptide, phosphorylation mimic domain of C/EBPβ]”: the “Inhibition of in vitro self-activation of caspase 1” value in experiment [1] is recorded as “inhibited the in vitro self-activation”. The “Inhibition … of caspase 8” value in experiment [2] is “inhibited the in vitro self-activation”. Also, in experiment [4], the “Rescue of stellate cells from apoptosis” value was “rescued these cells from apoptosis”.
For the molecule `CC(=O)N[C@@H](CSC(=O)[C@]1([C@@H](O)C(C)C)NC(=O)[C@H](C)[C@@H]1O)C(=O)O` [Lactacystin, lactacystin], the Stellate cell apoptosis entry in experiment [5] was “significant and rapid increase”.
IETD [reference compound]: in experiment [6], the “Block of apoptosis of C/EBPβ-Ala^217 stellate cells” value was “blocked”.
In the case of DEVD-CHO, in experiment [7], the inhibition constant Ki (as a rule, a measure of affinity in units of concentration, obtained from inhibition or displacement) was 12 nM.
For the molecule “Ac-KKPD^105-CHO (Ac-KKPD-aldehyde; SMILES CC(=O)N[C@@H](CCCCN)C(=O)N[C@@H](CCCCN)C(=O)N1CCC[C@H]1C(=O)N[C@H](C=O)CC(=O)O) [cell permeant synthetic N-acetyl, C-aldehyde tetrapeptide, phosphorylation mimic domain of rC/EBPβ]”, the “Inhibition … of caspase 8” value in experiment [2] is reported as “inhibited the in vitro self-activation”. For the same molecule, the “Rescue of stellate cells from apoptosis” value in experiment [4] is “rescued these cells from apoptosis”.

(Values after US8129349B2, “Treatment of disease by inducing cell apoptosis” (The Regents of the University of California, priority 2000, dated 2012).)
